Source: article PMC7501296, “Rapid and direct control of target protein levels with VHL-recruiting dTAG molecules” (Nature Communications, 2020)
Values joined by “and” are separate entries in the source; they are usually repeats but may differ in a detail not shown here. Identical values can stand only once.

What was measured:
Type in all cases: cell-based
FKBP12^F36V-Nluc = target: T1, FKBP12^F36V-Nluc (Homo sapiens, UniProt P62942, F37V); assay: FKBP12F36V-Nluc dual luciferase assay (293FT); conditions: 293FT, 24 h
T1 construct: expressed in transfected cells; host or cells: 293FT
T1 sequence (P62942 2-108 F37V limits assumed): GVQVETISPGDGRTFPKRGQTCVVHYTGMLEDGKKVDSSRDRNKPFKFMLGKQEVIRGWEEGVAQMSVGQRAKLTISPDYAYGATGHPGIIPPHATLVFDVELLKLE
Outline: (§1)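 293FT cells expressing FKBP12^WT-Nluc or FKBP12^F36V-Nluc with Fluc were treated with compound for 24 h at 37 °C. Fluc, then Nluc, luminescence was read with Dual-Glo reagents. Values are DMSO-normalised Nluc/Fluc ratios.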

FKBP12^WT-Nluc = target: T2, FKBP12^WT-Nluc (Homo sapiens, UniProt P62942); assay: FKBP12WT-Nluc dual luciferase assay (293FT); conditions: 293FT, 24 h
T2 construct: expressed in transfected cells; host or cells: 293FT
T2 sequence (P62942 2-108 limits assumed): as the sequence (P62942 2-108 F37V limits assumed) above, with V36F counted along it
Outline: as §1

[1] = tested on: PATU-8902 FKBP12^F36V-KRAS^G12V; KRAS^-/- clone; assay: Antiproliferation, PATU-8902 FKBP12F36V-KRASG12V; KRAS-/- clone, 2D-monolayer (CellTiter-Glo)
[2] = tested on: PATU-8902 FKBP12^F36V-KRAS^G12V; KRAS^-/- clone; assay: Antiproliferation, PATU-8902 FKBP12F36V-KRASG12V; KRAS-/- clone, 3D-spheroid (CellTiter-Glo); conditions: FKBP12F36V-KRASG12V, KRAS-/-, 3D-spheroid, 120 h
Outline: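 Viability of cells grown as ultra-low adherent 3D-spheroids was determined with CellTiter-Glo (Promega). Luminescence readings were taken on an Envision 2104 plate reader (PerkinElmer) and a Fluostar Omega Reader (BMG Labtech), and the resulting data were processed in GraphPad PRISM v8 to assess effects on cell proliferation.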

[3] = tested on: PATU-8902 LACZ-FKBP12^F36V clone; assay: Antiproliferation, PATU-8902 LACZ-FKBP12F36V clone, 2D-monolayer (CellTiter-Glo)
Outline: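 Viability of cells grown as 2D-adherent monolayers was determined with the CellTiter-Glo luminescent reagent (Promega). Luminescence signals were read on either an Envision 2104 plate reader (PerkinElmer) or a Fluostar Omega Reader (BMG Labtech), and the resulting data were processed and analyzed in GraphPad PRISM v8 software.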

[4] = log10[compound] (M) -5.69897, replicate values
[5] = log10[compound] (M) -6.19897, replicate values
[6] = log10[compound] (M) -6.69897, replicate values
[7] = log10[compound] (M) -7.19897, replicate values
[8] = log10[compound] (M) -7.69897, replicate values
[9] = log10[compound] (M) -8.19897, replicate values
[10] = log10[compound] (M) -8.69897, replicate values
[11] = log10[compound] (M) -9.19897, replicate values
[12] = log10[compound] (M) -9.69897, replicate values
[13] = log10[compound] (M) -10.199, replicate values

**Q.** CCC(C(=O)N1CCCCC1C(=O)OC(CCc1ccc(OC)c(OC)c1)c1ccccc1OCC(=O)NCCCCCCC(=O)NC(C(=O)N1CC(O)CC1C(=O)NC(C)c1ccc(-c2scnc2C)cc1)C(C)(C)C)c1cc(OC)c(OC)c(OC)c1 (centres unmarked) [dTAG^V-1-NEG] was tested. Which “Degradation of FKBP12F36V-Nluc (in words)” value (FKBP12^F36V-Nluc) did it give?
**A.** no activity

**Q.** What about the “Effect on FKBP12WT-Nluc (in words)” value (FKBP12^WT-Nluc) of the same compound?
**A.** no activity

**Q.** And the DMSO-normalized antiproliferation [1, 4]?
**A.** 4.32 and 6.388 and 6.155 and 5.991

**Q.** What about the DMSO-normalized antiproliferation [1, 5] of the same compound?
**A.** 32.3489 and 36.7324 and 47.9927 and 46.6785

**Q.** And the DMSO-normalized antiproliferation [1, 6]?
**A.** 83.4764 and 91.9957 and 98.0856 and 85.7695

**Q.** What about the DMSO-normalized antiproliferation [1, 7] of the same compound?
**A.** 140.095 and 133.654 and 96.5457 and 87.6299

**Q.** What about the DMSO-normalized antiproliferation [1, 8] of the same compound?
**A.** 124.703 and 107.666 and 124.781 and 104.227

**Q.** And the DMSO-normalized antiproliferation [1, 9]?
**A.** 100.524 and 126.087 and 110.25 and 83.3074

**Q.** And the DMSO-normalized antiproliferation [1, 10]?
**A.** 126.672 and 110.141 and 94.4012 and 101.209

**Q.** What about the DMSO-normalized antiproliferation [1, 11] of the same compound?
**A.** 119.782 and 117.251 and 170.771 and 120.652

**Q.** What about the DMSO-normalized antiproliferation [1, 12] of the same compound?
**A.** 93.2126 and 100.867 and 84.0534 and 89.6654

**Q.** And the DMSO-normalized antiproliferation [1, 13]?
**A.** 113.321 and 95.7713 and 117.376 and 100.982

**Q.** What about the DMSO-normalized antiproliferation ([2]; log10[compound] (M) -5.69897, single replicates) of the same compound?
**A.** 37.3931 and 26.551 and 27.3028 and 28.0546

**Q.** And the DMSO-normalized antiproliferation ([2]; log10[compound] (M) -6.19897, single replicates)?
**A.** 78.1886 and 92.1435 and 64.5511 and 70.1475

**Q.** And the DMSO-normalized antiproliferation ([2]; log10[compound] (M) -6.69897, single replicates)?
**A.** 103.503 and 85.567 and 103.938 and 98.1965

**Q.** And the DMSO-normalized antiproliferation ([2]; log10[compound] (M) -7.19897, single replicates)?
**A.** 124.063 and 123.712 and 110.481 and 131.998

**Q.** And the DMSO-normalized antiproliferation ([2]; log10[compound] (M) -7.69897, single replicates)?
**A.** 94.7496 and 116.061 and 121.718 and 128.178

**Q.** And the DMSO-normalized antiproliferation ([2]; log10[compound] (M) -8.19897, single replicates)?
**A.** 119.268 and 103.119 and 108.576 and 125.767

**Q.** And the DMSO-normalized antiproliferation ([2]; log10[compound] (M) -8.69897, single replicates)?
**A.** 120.883 and 119.814 and 120.521 and 105.703

**Q.** What about the DMSO-normalized antiproliferation ([2]; log10[compound] (M) -9.19897, single replicates) of the same compound?
**A.** 102.117 and 92.5221 and 111.366 and 98.8369

**Q.** And the DMSO-normalized antiproliferation ([2]; log10[compound] (M) -9.69897, single replicates)?
**A.** 88.1174 and 98.3023 and 99.984 and 124.954

**Q.** And the DMSO-normalized antiproliferation ([2]; log10[compound] (M) -10.199, single replicates)?
**A.** 99.0429 and 90.8682 and 97.0717 and 101.855

**Q.** What about the DMSO-normalized antiproliferation [3, 4] of the same compound?
**A.** 11.5867 and 14.0973 and 18.4019 and 18.5068

**Q.** And the DMSO-normalized antiproliferation [3, 5]?
**A.** 63.5123 and 73.6517 and 63.5598 and 74.3207

**Q.** And the DMSO-normalized antiproliferation [3, 6]?
**A.** 93.1863 and 113.355 and 96.7633 and 104.117

**Q.** And the DMSO-normalized antiproliferation [3, 7]?
**A.** 100.081 and 106.556 and 105.951 and 130.27

**Q.** What about the DMSO-normalized antiproliferation [3, 8] of the same compound?
**A.** 138.495 and 100.848 and 147.738 and 83.6486

**Q.** What about the DMSO-normalized antiproliferation [3, 9] of the same compound?
**A.** 143.617 and 87.8737 and 136.886 and 159.708

**Q.** And the DMSO-normalized antiproliferation [3, 10]?
**A.** 153.483 and 88.4456 and 121.366 and 127.155

**Q.** And the DMSO-normalized antiproliferation [3, 11]?
**A.** 128.036 and 98.5375 and 110.326 and 91.7687

**Q.** What about the DMSO-normalized antiproliferation [3, 12] of the same compound?
**A.** 126.211 and 97.7702 and 97.5063 and 90.8491

**Q.** And the DMSO-normalized antiproliferation [3, 13]?
**A.** 118.887 and 87.4707 and 131.584 and 99.1889
